Laboratory results as given in patent US9732119B2, “Immunomodulators” (BRISTOL-MYERS SQUIBB COMPANY, priority 2014, dated 2017).
Positions of bridges follow the written chain, without caps; N, C: chain ends. Non-standard residues stand in square brackets, D forms with d. Residues, ends and D or L forms follow the SMILES beside them. Trp(1-CH2COOH) = N[C@@H](Cc1cn(CC(=O)O)c2ccccc12)C(=O)O; Phe(4-F) = N[C@@H](Cc1ccc(F)cc1)C(=O)O; Phe(4-Me) = Cc1ccc(C[C@H](N)C(=O)O)cc1; Hyp = O=C(O)[C@@H]1C[C@@H](O)CN1; Aad = N[C@@H](CCCC(=O)O)C(=O)O; NMeNle = CCCC[C@H](NC)C(=O)O; dOrn = NCCC[C@@H](N)C(=O)O; Pip = O=C(O)[C@@H]1CCCCN1; NMeA = CN[C@@H](C)C(=O)O; Orn = NCCC[C@H](N)C(=O)O; Dab = NCC[C@H](N)C(=O)O; Dap = NC[C@H](N)C(=O)O; Ava = NCCCCC(=O)O

These compounds were tested against T1, PD-1-Ig binding to PD-L1-TVMV-His (PD-L1-His) (Homo sapiens, UniProt Q9NZQ7) (assay: PD-1/PD-L1 Homogenous Time-Resolved Fluorescence (HTRF) binding assay). Conditions: PD-1-Ig (20 nM) / PD-L1-His (10 nM); numeric values.
T1 construct: hPDL1(19-239)-TVMV-His; made in house; host or cells: HEK293T cells
T1 sequence (Q9NZQ7 with tags, fused parts or gaps): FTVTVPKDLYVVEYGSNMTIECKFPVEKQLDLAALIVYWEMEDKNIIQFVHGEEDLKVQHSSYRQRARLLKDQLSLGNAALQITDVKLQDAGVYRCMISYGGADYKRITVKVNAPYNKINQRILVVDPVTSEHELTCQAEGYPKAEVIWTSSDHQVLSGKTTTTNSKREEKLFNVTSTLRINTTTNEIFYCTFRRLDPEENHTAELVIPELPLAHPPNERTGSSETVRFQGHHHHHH
Text: The ability of the macrocyclic peptides of the present disclosure to bind to PD-L1 was investigated using a PD-1/PD-L1 Homogenous Time-Resolved Fluorescence (HTRF) binding assay.
Homogenous Time-Resolved Fluorescence (HTRF) Assays of Binding of Soluble PD-1 to Soluble PD-L1. Soluble PD-1 and soluble PD-L1 refers to proteins with carboxyl-end truncations that remove the transmembrane-spanning regions and are fused to heterologous sequences, specifically the Fc portion of the human immunoglobuling G sequence (Ig) or the hexahistidine epitope tag (His). All binding studies were performed in an HTRF assay buffer consisting of dPBS supplemented with 0.1% (w/v) bovine serum albumin and 0.05% (v/v) Tween-20. For the PD-1-Ig/PD-L1-His binding assay, inhibitors were pre-incubated with PD-L1-His (10 nM final) for 15 m in 4 μl of assay buffer, followed by addition of PD-1-Ig (20 nM final) in 1 μl of assay buffer and further incubation for 15 m. PD-L1 fusion proteins from either human, cynomologous macaques, mouse, or other species were used. HTRF detection was achieved using europium crypate-labeled anti-Ig monoclonal antibody (1 nM final) and allophycocyanin (APC) labeled anti-His monoclonal antibody (20 nM final). Antibodies were diluted in HTRF detection buffer and 5 μl was dispensed on top of binding reaction. […] Additional binding assays were established between PD-1-Ig/PD-L2-His (20 and 5 nM, respectively), CD80-His/PD-L1-Ig (100 and 10 nM, respectively) and CD80-His/CTLA4-Ig (10 and 5 nM, respectively).
Recombinant Proteins. […] Human PD-L2-His (Sino Biologicals), CD80-His (Sino Biologicals), CTLA4-Ig (RnD Systems) were all obtained through commercial sources.

Structure (SMILES)	IC50
CCCC[C@H]1C(=O)N(C)[C@@H](CCCC)C(=O)N[C@@H](CC(C)C)C(=O)NCCCCC(=O)N[C@@H](Cc2ccc(O)cc2)C(=O)N(C)[C@@H](C)C(=O)N[C@@H](CC(=O)O)C(=O)N2CCC[C@H]2C(=O)N[C@@H](Cc2c[nH]cn2)C(=O)N[C@@H](CCCCN)C(=O)N2C[C@H](O)C[C@H]2C(=O)N[C@@H](Cc2c[nH]c3ccccc23)C(=O)N[C@@H](CCCCN)C(=O)N[C@@H](Cc2cn(CC(=O)O)c3ccccc23)C(=O)N1C [Example 10509] (cyclo([Ava]Y[NMeA]DPHK[Hyp]WK[Trp(1-CH2COOH)][NMeNle][NMeNle]L))	765 nM

Same assay, conditions: PD-1-Ig (20 nM) / PD-L1-His (10 nM); range classes

Structure (SMILES)	IC50
CCCC[C@H]1C(=O)N(C)[C@@H](CCCC)C(=O)N[C@@H](CC(C)C)C(=O)N[C@H](C(=O)NCC(N)=O)CCNCC(=O)N[C@@H](Cc2ccc(O)cc2)C(=O)N(C)[C@@H](C)C(=O)N[C@@H](CC(N)=O)C(=O)N2CCC[C@H]2C(=O)N[C@@H](Cc2cnc[nH]2)C(=O)N[C@@H](CCC(N)=O)C(=O)N2C[C@H](O)C[C@H]2C(=O)N[C@@H](Cc2c[nH]c3ccccc23)C(=O)NCC(=O)N[C@@H](Cc2cn(CC(=O)O)c3ccccc23)C(=O)N1C [Example 10021]	10 to 99 nM
CCCC[C@H]1C(=O)N(C)[C@@H](CCCC)C(=O)N[C@@H](CCC(=O)O)C(=O)N[C@H](C(N)=O)CNCC(=O)N[C@@H](Cc2ccc(F)cc2)C(=O)N2CCCC[C@H]2C(=O)N[C@@H](CC(N)=O)C(=O)N2CCC[C@H]2C(=O)N[C@@H](Cc2c[nH]cn2)C(=O)N[C@@H](CC(=O)O)C(=O)N2C[C@H](O)C[C@H]2C(=O)N[C@@H](Cc2c[nH]c3ccccc23)C(=O)N[C@@H](C)C(=O)N[C@@H](Cc2cn(CC(=O)O)c3ccccc23)C(=O)N1C [Example 9057]	1 to 9.9 nM
CCCC[C@H]1C(=O)N(C)[C@@H](CCCC)C(=O)N[C@@H](CC(C)C)C(=O)NCCC[C@@H](N)C(=O)N[C@@H](Cc2ccc(C)cc2)C(=O)N2CCCC[C@H]2C(=O)N[C@@H](CC(N)=O)C(=O)N2CCC[C@H]2C(=O)N[C@@H](CN)C(=O)N[C@@H](CCC(=O)O)C(=O)N2C[C@H](O)C[C@H]2C(=O)N[C@@H](Cc2c[nH]c3ccccc23)C(=O)N[C@@H](CCN)C(=O)N[C@@H](Cc2cn(CC(=O)O)c3ccccc23)C(=O)N1C [Example 10560] (H-[dOrn][Phe(4-Me)][Pip]NP[Dap]E[Hyp]W[Dab][Trp(1-CH2COOH)][NMeNle][NMeNle]L; lactam 1-C)	10 to 99 nM
CCCC[C@H]1C(=O)N(C)[C@@H](CCCC)C(=O)N[C@@H](CO)C(=O)N[C@H](C(=O)NCC(N)=O)CNCC(=O)N[C@@H](Cc2ccc(O)cc2)C(=O)N(C)[C@@H](C)C(=O)N[C@@H](CC(N)=O)C(=O)N2CCC[C@H]2C(=O)N[C@@H](Cc2cnc[nH]2)C(=O)N[C@@H](CCC(N)=O)C(=O)N2C[C@H](O)C[C@H]2C(=O)N[C@@H](Cc2c[nH]c3ccccc23)C(=O)N[C@@H](CO)C(=O)N[C@@H](Cc2c[nH]c3ccccc23)C(=O)N1C [Example 10024]	10 to 99 nM
CCCC[C@H]1C(=O)N(C)[C@@H](CCCC)C(=O)N[C@@H](CC(C)C)C(=O)N[C@H](C(=O)NCC(N)=O)CNCC(=O)N[C@@H](Cc2ccc(O)cc2)C(=O)N(C)[C@@H](C)C(=O)N[C@@H](CC(N)=O)C(=O)N2CCC[C@H]2C(=O)N[C@@H](Cc2cnc[nH]2)C(=O)N[C@@H](CCC(N)=O)C(=O)N2C[C@H](O)C[C@H]2C(=O)N[C@@H](Cc2c[nH]c3ccccc23)C(=O)N[C@@H](CO)C(=O)N[C@@H](Cc2c[nH]c3ccccc23)C(=O)N1C [Example 10004]	1 to 9.9 nM
CCCC[C@H]1C(=O)N(C)[C@@H](CCCC)C(=O)N[C@@H](CC(C)C)C(=O)NCCCCC(=O)N[C@@H](Cc2ccc(OC)cc2)C(=O)N2CCCC[C@H]2C(=O)N[C@@H](CC(=O)O)C(=O)N2CCC[C@H]2C(=O)N[C@@H](CN)C(=O)N[C@@H](CC(C)C)C(=O)N2C[C@H](O)C[C@H]2C(=O)N[C@@H](Cc2c[nH]c3ccccc23)C(=O)N[C@@H](CCN)C(=O)N[C@@H](Cc2cn(CC(=O)O)c3ccccc23)C(=O)N1C [Example 10572] (cyclo([Ava]Y(Me)[Pip]DP[Dap]L[Hyp]W[Dab][Trp(1-CH2COOH)][NMeNle][NMeNle]L))	1 to 9.9 nM
CCCC[C@H]1C(=O)N(C)[C@@H](CCCC)C(=O)N[C@@H](CC(C)C)C(=O)N[C@H](C(N)=O)CNCC(=O)N[C@@H](Cc2ccc(O)cc2)C(=O)N2CCCC[C@H]2C(=O)N[C@@H](CC(=O)O)C(=O)N2CCC[C@H]2C(=O)N[C@@H](CCC(N)=O)C(=O)N[C@@H](CCC(N)=O)C(=O)N2C[C@H](O)C[C@H]2C(=O)N[C@@H](Cc2c[nH]c3ccccc23)C(=O)N[C@@H](CC(N)=O)C(=O)N[C@@H](Cc2cn(CC(=O)O)c3ccccc23)C(=O)N1C [Example 9037]	1 to 9.9 nM
CCCC[C@H]1C(=O)N(C)[C@@H](CCCC)C(=O)N[C@@H](CC(C)C)C(=O)N[C@H](C(=O)NCC(N)=O)CNCC(=O)N[C@@H](Cc2ccc(O)cc2)C(=O)N(C)[C@@H](C)C(=O)N[C@@H](CC(N)=O)C(=O)N2CCC[C@H]2C(=O)N[C@@H](Cc2cnc[nH]2)C(=O)N[C@@H](CCC(N)=O)C(=O)N2C[C@H](O)C[C@H]2C(=O)N[C@@H](Cc2c[nH]c3ccccc23)C(=O)NCC(=O)N[C@@H](Cc2cn(CC(=O)O)c3ccccc23)C(=O)N1C [Example 10020]	10 to 99 nM
CCCC[C@H]1C(=O)N(C)[C@@H](CCCC)C(=O)N[C@@H](CC(C)C)C(=O)NCCCCC(=O)N[C@@H](Cc2ccc(O)cc2)C(=O)N2CCCC[C@H]2C(=O)N[C@@H](CC(=O)O)C(=O)N2CCC[C@H]2C(=O)N[C@@H](Cc2c[nH]cn2)C(=O)N[C@@H](CCCCN)C(=O)N2C[C@H](O)C[C@H]2C(=O)N[C@@H](Cc2c[nH]c3ccccc23)C(=O)N[C@@H](CCCCN)C(=O)N[C@@H](Cc2cn(CC(=O)O)c3ccccc23)C(=O)N1C [Example 10510] (cyclo([Ava]Y[Pip]DPHK[Hyp]WK[Trp(1-CH2COOH)][NMeNle][NMeNle]L))	100 to 10000 nM
CCCC[C@H]1C(=O)N(C)[C@@H](CCCC)C(=O)N[C@@H](CC(C)C)C(=O)N[C@H](C(N)=O)CNCC(=O)N[C@@H](Cc2ccc(F)cc2)C(=O)N2CCCC[C@H]2C(=O)N[C@@H](CC(N)=O)C(=O)N2CCC[C@H]2C(=O)N[C@@H](CCC(N)=O)C(=O)N[C@@H](CCC(=O)O)C(=O)N2C[C@H](O)C[C@H]2C(=O)N[C@@H](Cc2c[nH]c3ccccc23)C(=O)N[C@@H](CC(N)=O)C(=O)N[C@@H](Cc2cn(CC(=O)O)c3ccccc23)C(=O)N1C [Example 9032]	1 to 9.9 nM
CCCC[C@H]1C(=O)N(C)[C@@H](CCCC)C(=O)N[C@@H](CC(C)C)C(=O)NCCC[C@H](N)C(=O)N[C@@H](Cc2ccc(F)cc2)C(=O)N2CCCC[C@H]2C(=O)N[C@@H](CC(N)=O)C(=O)N2CCC[C@H]2C(=O)N[C@@H](CN)C(=O)N[C@@H](CC(C)C)C(=O)N2C[C@H](O)C[C@H]2C(=O)N[C@@H](Cc2c[nH]c3ccccc23)C(=O)N[C@@H](CCN)C(=O)N[C@@H](Cc2cn(CC(=O)O)c3ccccc23)C(=O)N1C [Example 10550] (H-[Orn][Phe(4-F)][Pip]NP[Dap]L[Hyp]W[Dab][Trp(1-CH2COOH)][NMeNle][NMeNle]L; lactam 1-C)	10 to 99 nM
CCCC[C@H]1C(=O)N(C)[C@@H](CCCC)C(=O)N[C@@H](CC(C)C)C(=O)N[C@H](C(=O)NCC(N)=O)CCCC(=O)N[C@@H](Cc2ccc(O)cc2)C(=O)N2CCCC[C@H]2C(=O)N[C@@H](CC(N)=O)C(=O)N2CCC[C@H]2C(=O)N[C@@H](CN)C(=O)N[C@@H](CCC(=O)O)C(=O)N2C[C@H](O)C[C@H]2C(=O)N[C@@H](Cc2c[nH]c3ccccc23)C(=O)N[C@@H](CCN)C(=O)N[C@@H](Cc2cn(CC(=O)O)c3ccccc23)C(=O)N1C [Example 10508] (Y[Pip]NP[Dap]E[Hyp]W[Dab][Trp(1-CH2COOH)][NMeNle][NMeNle]L[Aad]G-NH2; lactam N-14)	10 to 99 nM
